In US11352315B2, “Compositions and methods comprising a triaryl polyamine” (Curza Global, LLC, priority 2017, dated 2022):
Values after ≈ are worked out from the molar mass of the structure shown.

How the values were obtained:
MRSA [1] = experiment: MBEC analysis, MBEC Inoculation Tray (column headed MBC); format: cell-based; settings: Staphylococcus aureus, 24 hours
Source text: (§1) To determine the MBEC of each polyamine compound, the MBEC Inoculation Tray by Innovotech, formerly known as the Calgary biofilm device, was used. Within this device, biofilms grow on the surface of polystyrene pegs, 96 of which are attached to a lid. These pegs are inserted into a flat bottom 96-well plate. In this instance, the MBEC of a molecule was defined as the concentration of compound (in μg/mL) required to reduce 10^5 or 10^6 CFU/peg (biofilm levels varied by isolate) to 10^2 CFU/peg in a 24-hour period.
(§2) Following the manufacturer's guidelines, biofilms were grown on the surface of each peg by first making a 0.5 McFarland of each isolate. The 0.5 McFarland was diluted 1:100 in CAMHB. Into each well of a flat bottom 96-well plate, 150 μL of broth were pipetted. The plate was shaken at 100 rpm for 24 hours (P. aeruginosa and A. baumannii) or 48 hours (MRSA). The pegs were then placed into a separate flat bottom 96-well plate for 10 seconds with 200 μL of phosphate buffered saline (PBS) in each well to remove nonadherent cells. The lid was then placed into a 96-well plate that contained varying concentrations of antimicrobial with 200 μL per well. The plate was incubated for 24 hours at 37° C. after which time 100 μL of broth were plated on TSA. TSA plates were incubated 24 hours at 37° C. and the number of CFU counted to calculate the CFU/peg. In this instance, the MBEC was defined as the concentration of antimicrobial required to reduce 10^5 or 10^6 CFU/peg to 10^2 CFU/peg in a 24 hour period.

P. aeruginosa [2] = experiment: as above; format: cell-based; settings: Pseudomonas aeruginosa, 24 hours
Source text: as §1, §2

MRSA [3] = experiment: MIC analysis; format: cell-based; settings: Staphylococcus aureus, 24 hours
Experimental: (§3) A clinical strain of MRSA, isolated from a patient who underwent arthroscopic knee surgery and characterized by ARUP Laboratories, Salt Lake City, Utah, was used for this study in addition to Pseudomonas aeruginosa ATCC 27853 and Alcanivorax borkumensis ATCC 700651. P. aeruginosa was resuspended in BHI broth, grown overnight at 37° C. and transferred to fresh BHI with 30% glycerol for storage at −80° C. The MRSA isolate was likewise stored in BHI with 30% glycerol at −80° C. […] Before performing MIC analysis and biofilm experiments, the frozen stocks of MRSA and P. aeruginosa were streaked onto Columbia blood agar plates and grown overnight at 37° C. A. borkumensis ATCC 700651 was resuspended from a lyophilized pellet into marine broth, grown overnight at 30° C. and passaged on marine agar plates prior to experimentation.
(§4) To determine the MIC of polyamine compounds, the protocol described herein was used.
(§5) In brief, a 0.5 McFarland of each bacterial isolate was made. A 0.5 McFarland is a measure of turbidity in a liquid sample that contains approximately 1×10^^8 CFU/mL. The 0.5 McFarland standard was diluted in cation adjusted Mueller Hinton Broth (CAMHB), and 50 μL of broth were added to a well of a 96-well plate. In addition, 50 μL of CAMHB that contained a desired concentration of antimicrobial were also added to the well for a final volume of 100 μL and a final concentration of approximately 5×10^4 CFU/well (which equated to approximately 5×10^5 CFU/mL). Each well contained a desired amount of polyamine compound in order to experimentally determine the MIC. Each 96-well plate was incubated at 37° C. for 24 hours. The contents of each well were plated on tryptic soy agar (TSA). TSA plates were incubated for 37° C. for 24 hours after which the number of CFU were counted and used to calculate the CFU/mL that remained after exposure to varying concentrations of compound. This procedure was repeated n=8 times for each concentration of antimicrobial.

P. aeruginosa [4] = experiment: MIC analysis; format: cell-based; settings: Pseudomonas aeruginosa, 24 hours
Experimental: as §3, §4, §5

E. coli [5] = experiment: MIC analysis; format: cell-based; settings: Escherichia coli, 24 hours
Experimental: as §4, §5

E. coli [6] = experiment: MBEC analysis, MBEC Inoculation Tray (column headed MBC); format: cell-based; settings: Escherichia coli, 24 hours
MRSA [7] = experiment: EBEC analysis, high number biofilms on PEEK membranes; format: cell-based, Staphylococcus aureus; settings: 24 hours
Experimental: (§6) To determine the efficacy of polyamine compounds against high number biofilms, biofilms were grown on the surface of polyetheretherketone (PEEK) membranes using a membrane biofilm reactor. This reactor was similar to the CDC biofilm reactor, but rather than growing biofilms on coupon surfaces, the reactor was modified to hold PEEK membranes. In short, to grow biofilms within this system, 500 mL of brain heart infusion (BHI) broth were inoculated with 1 mL of a 0.5 McFarland. The reactor was placed on a hot plate set at 34° C. and the bacteria were grown under batch conditions for 24 hours.
(§7) A solution of 10% BHI was then flowed through the reactor at a rate of 6.94 mL/min for an additional 24 hours. PEEK membranes were then removed and placed into 2 mL of CAMHB that contained a desired concentration of polyamine compound or antibiotic. The EBEC was defined as the concentration of antimicrobial required to reduce a biofilm from approximately 10^9 CFU/PEEK membrane to approximately 10^2 CFU/PEEK membrane in a 24-hour period.

A. baumannii [8] = experiment: MIC analysis; format: cell-based; settings: Acinetobacter baumannii, 24 hours
Experimental: as §4, §5

A. baumannii [9] = experiment: MBEC analysis, MBEC Inoculation Tray (column headed MBC); format: cell-based; settings: Acinetobacter baumannii, 24 hours
Source text: as §1, §2

A. baumannii [10] = experiment: EBEC analysis, high number biofilms on PEEK membranes; format: cell-based, Acinetobacter baumannii; settings: 24 hours
Experimental: as §6, §7

Structure (SMILES) | MBC (MRSA [1]) [µg/mL] | MBC (P. aeruginosa [2]) [µg/mL] | MIC (MRSA [3]) [µg/mL] | MIC (P. aeruginosa [4]) [µg/mL] | MIC (E. coli [5]) [µg/mL] | MBC (E. coli [6]) [µg/mL] | EBEC (MRSA [7]) [µg/mL] | MIC (A. baumannii [8]) [µg/mL] | MBC (A. baumannii [9]) [µg/mL] | EBEC (A. baumannii [10]) [µg/mL]
CC(C)CNCCCNCCCNCc1cccc(-c2ccccc2-c2cccc(CNCCCNCCCNCC(C)C)c2)c1 [CZ-1-152] | 16 (≈ 25.4 µM) | 32 (≈ 50.9 µM) | 16 (≈ 25.4 µM) | 32 (≈ 50.9 µM) |  |  |  |  |  | 
CC(C)CNCCCNCCCNCc1cccc(-c2ccc(-c3cccc(CNCCCNCCCNCC(C)C)c3)c(CNCCCNCCCNCC(C)C)c2)c1 [CZ-1-153, N^1,N^1′,N^1″-([1,1′:4′,1″-terphenyl]-2′,3,3″-triyltris(methylene))tris(N^3-(3-(isobutylamino)propyl)propane-1,3-diamine)] | 16 (≈ 19.3 µM) | > 64 | 16 (≈ 19.3 µM) | > 64 |  |  |  |  |  | 
CC(C)CNCCCNCCCNCc1ccc(-c2ccccc2-c2ccc(CNCCCNCCCNCC(C)C)cc2)cc1 [CZ-1-154, N^1,N^1′-([1,1′:2′,1″-terphenyl]-4,4″-diylbis(methylene))bis(N^3-(3-(isobutylamino)propyl)propane-1,3-diamine)] | 4 (≈ 6.36 µM) | > 32 | 4 (≈ 6.36 µM) | 32 (≈ 50.9 µM) | 16 (≈ 25.4 µM) | 16 (≈ 25.4 µM) |  |  |  | 
CCCCCCNCCCNCCCNCc1cccc(-c2ccccc2-c2cccc(CNCCCNCCCNCCCCCC)c2)c1 [CZ-1-155, N^1,N^1′-([1,1′:2′,1″-terphenyl]-3,3″-diylbis(methylene))bis(N^3-(3-(hexylamino)propyl)propane-1,3-diamine)] | 16 (≈ 23.4 µM) | 16 (≈ 23.4 µM) | 16 (≈ 23.4 µM) | 16 (≈ 23.4 µM) |  |  |  |  |  | 
CC(C)CNCCCNCCCNCc1ccc(-c2cccc(-c3ccc(CNCCCNCCCNCC(C)C)cc3)c2)cc1 [CZ-1-157, N^1,N^1′-([1,1′:3′,1″-terphenyl]-4,4″-diylbis(methylene))bis(N^3-(3-(isobutylamino)propyl)propane-1,3-diamine)] | 4 (≈ 6.36 µM) | 16 (≈ 25.4 µM) | 4 (≈ 6.36 µM) | 16 (≈ 25.4 µM) |  |  | >750 |  |  | 
CCCCC(CC)CNCCCNCCCNCc1ccc(-c2cccc(-c3ccc(CNCCCNCCCNCC(CC)CCCC)cc3)c2)cc1 (stereo not drawn) [CZ-1-161, N^1,N^1′-([1,1′:3′,1″-terphenyl]-4,4″-diylbis(methylene))bis(N^3-(3-((2-ethylhexyl)amino)propyl)propane-1,3-diamine)] | 2 (≈ 2.7 µM) | 16 (≈ 21.6 µM) | 1 (≈ 1.35 µM) | 16 (≈ 21.6 µM) | 1 (≈ 1.35 µM) | 1 (≈ 1.35 µM) |  | 4 (≈ 5.4 µM) | 4 (≈ 5.4 µM) | 
CCC(CC)CNCCCNCCCNCc1ccc(-c2cccc(-c3ccc(CNCCCNCCCNCC(CC)CC)cc3)c2)cc1 [CZ-1-164, N^1,N^1′-([1,1′:3′,1″-terphenyl]-4,4″-diylbis(methylene))bis(N^3-(3-((2-ethylbutyl)amino)propyl)propane-1,3-diamine)] | 1 (≈ 1.46 µM) | 16 (≈ 23.4 µM) | 1 (≈ 1.46 µM) | 16 (≈ 23.4 µM) |  |  |  |  |  | 
CCC(C)CNCCCNCCCNCc1ccc(-c2cccc(-c3ccc(CNCCCNCCCNCC(C)CC)cc3)c2)cc1 (stereo not drawn) [CZ-1-166, N^1,N^1′-([1,1′:3′,1″-terphenyl]-4,4″-diylbis(methylene))bis(N^3-(3-((2-methylbutyl)amino)propyl)propane-1,3-diamine)] | 1 (≈ 1.52 µM) | 8 (≈ 12.2 µM) | 1 (≈ 1.52 µM) | 4 (≈ 6.09 µM) |  |  |  |  |  | 
CC(C)CCNCCCNCCCNCc1ccc(-c2ccnc(-c3ccc(CNCCCNCCCNCCC(C)C)cc3)n2)cc1 [CZ-1-174, N^1,N^1′-((pyrimidine-2,4-diylbis(4,1-phenylene))bis(methylene))bis(N^3-(3-(isopentylamino)propyl)propane-1,3-diamine)] | 16 (≈ 24.3 µM) | > 64 | 8 (≈ 12.1 µM) | 64 (≈ 97.1 µM) |  |  |  |  |  | 
CC(C)CNCCCNCCCNCc1ccc(-c2cc(-c3ccc(CNCCCNCCCNCC(C)C)cc3)ncn2)cc1 [CZ-1-176, N^1,N^1′-((pyrimidine-4,6-diylbis(4,1-phenylene))bis(methylene))bis(N^3-(3-(isobutylamino)propyl)propane-1,3-diamine)] | 32 (≈ 50.7 µM) | 64 (≈ 101 µM) | 32 (≈ 50.7 µM) | 64 (≈ 101 µM) |  |  |  |  |  | 
CC(C)CNCCCNCCCNCc1ccc(-c2cc(-c3ccc(CNCCCNCCCNCC(C)C)cc3)cc(C(C)(C)C)c2)cc1 [CZ-1-177, N^1,N^1′-((5′-(tert-butyl)-[1,1′:3′,1″-terphenyl]-4,4″-diyl)bis(methylene))bis(N^3-(3-(isobutylamino)propyl)propane-1,3-diamine)] | 1 (≈ 1.46 µM) | > 4 | 1 (≈ 1.46 µM) | 1 (≈ 1.46 µM) |  |  | 250 | 8 (≈ 11.7 µM) | 16 (≈ 23.4 µM) | 500
CCC(C)CNCCCNCCCNCc1ccc(-c2cc(-c3ccc(CNCCCNCCCNCC(C)CC)cc3)cc(C(C)(C)C)c2)cc1 (stereo not drawn) [CZ-1-178, N^1,N^1′-((5′-(tert-butyl)-[1,1′:3′,1″-terphenyl]-4,4″-diyl)bis(methylene))bis(N^3-(3-((2-methylbutyl)amino)propyl)propane-1,3-diamine)] | 1 (≈ 1.4 µM) | > 4 | 1 (≈ 1.4 µM) | 1 (≈ 1.4 µM) |  |  | <250 | 2 (≈ 2.8 µM) | 4 (≈ 5.61 µM) | 500
CCC(CC)CNCCCNCCCNCc1cccc(-c2cc(-c3cccc(CNCCCNCCCNCC(CC)CC)c3)cc(C(C)(C)C)c2)c1 [CZ-1-183, N^1,N^1′-((5′-(tert-butyl)-[1,1′:3′,1″-terphenyl]-3,3″-diyl)bis(methylene))bis(N^3-(3-((2-ethylbutyl)amino)propyl)propane-1,3-diamine)] |  |  | 0.5 (≈ 0.675 µM) | 8 (≈ 10.8 µM) |  |  |  | 16 (≈ 21.6 µM) |  | 
CC(C)CNCCCNCCCNCc1cccc(-c2cc(-c3cccc(CNCCCNCCCNCC(C)C)c3)cc(C(C)(C)C)c2)c1 [CZ-1-184, N^1,N^1′-((5′-(tert-butyl)-[1,1′:3′,1″-terphenyl]-3,3″-diyl)bis(methylene))bis(N^3-(3-(isobutylamino)propyl)propane-1,3-diamine)] |  |  | 0.5 (≈ 0.73 µM) | 16 (≈ 23.4 µM) |  |  |  | 64 (≈ 93.4 µM) |  | 
